# Test results published in article PMC4140855, “Production of an Attenuated Phenol-Soluble Modulin Variant Unique to the MRSA Clonal Complex 30 Increases Severity of Bloodstream Infection” (PLoS Pathogens, 2014).
# Key:
# [1] = tested on: abscess or lesion; test: Mouse model of skin infection (abscess sizes); type: in vivo; conditions: Crl∶SKH1-hrBR mice, subcutaneous, 14 d; expressed in strains MRSA252 and 22030
# Procedure: The mouse skin infection model was performed as described. Briefly, six to eight week-old female Crl∶SKH1-hrBR hairless mice (Charles River Laboratories) were injected subcutaneously with ∼4×10^7 CFU of S. aureus strains 252 or 252*, or ∼5×10^6 CFU of S. aureus strains 22030 or 22030* in 50 µl of PBS in the left flank of the mouse. The length (L) and width (W) of the abscess or lesion caused by the bacterial infection was measured with an electronic caliper daily for 14 d post infection and calculated using the formula L×W. Typically, strain MRSA252 caused closed abscesses and strain 22030 open lesions. All animals were euthanized after completion of the entire procedure. All mouse experiments were performed blinded at the animal care facility of the NIAID, Building 33, in compliance with the guidelines of the NIAID/NIH Institutional Animal Care and Use Committee.
# Supplementary file ppat.1004298.s002.tif: Figure S2 Mouse model of skin infection. […] The length (L) and width (W) of the abscess or lesion caused by the bacterial infection was measured with an electronic caliper daily for 14 d post infection and calculated using the formula L×W. Typically, strain MRSA 252 caused closed abscesses and strain 22030 open lesions. […]
# [2] = tested on: human neutrophils; test: Chemotaxis of human neutrophils (transwell migration); type: cell-based; conditions: synthetic peptides, all tested concentrations, three donors, quadruplicate, compared to PSMα3N22Y
# Procedure: Figure 3 PSMα3N22Y has decreased chemotactic activity toward human neutrophils. (A) Chemotaxis of human neutrophils (neutrophil migration) was measured using a transwell system with synthetic peptides at the indicated concentrations. Neutrophils were from three donors and the measurements were performed in quadruplicate. **, p<0.01; ****, p<0.0001. (B) Chemotaxis of human neutrophils tested with culture filtrates (diluted 1∶100) of strains MRSA252 (252, expressing PSMα3N22Y) and 252* (MRSA252 altered to express PSMα3); ****, p<0.0001. Data are from two donors with triplicate measurements. […]
# (§1) Human neutrophils were isolated from venous blood of healthy donors as described, [39]. Neutrophil chemotaxis and Ca^2+ flux were determined as previously described, [24]. […] Chemotaxis of neutrophils was determined using a transwell system (Costar) with analysis of neutrophil migration using fluorescence labeling. Calcium fluxes were monitored as a surrogate marker for chemotaxis since it can be measured more robustly and accurately than chemotaxis. For measurement of Ca^2+ fluxes, 5×10^6 neutrophils/ml were labeled with a fluorescent dye and analyzed with a FACScalibur (Becton Dickinson) as described. […] Measurements of 2,000 events were performed and Ca^2+ flux was expressed as relative fluorescence corrected for buffer controls. […]
# [3] = tested on: human neutrophils; test: Human neutrophil chemotaxis / Ca2+ flux with FPR1 inhibited by CHIPS; type: cell-based; conditions: peptide 100 nM; CHIPS 1.4 µg/ml, 20 min pre-incubation at room temperature; three donors, quadruplicate
# Procedure: Next, we analyzed Ca^2+ flux as a general measure to test for neutrophil activation, as used in previous studies. HL60 cells stably transfected with different FPR receptor genes were used to determine which FPR receptors are differentially activated by PSMα3 versus PSMα3N22Y (Fig. 4A). […] At a peptide concentration of 100 nM, we observed a difference of ∼factor 2 in chemotactic activity comparing the two peptides when FPR1 recognition was inhibited by CHIPS, likely attributable to FPR2-mediated recognition. […]
# (A) Differential activation of FPRs by PSMα3 versus PSMα3N22Y was measured using synthetic peptides and Ca^2+ flux observed in HL60 cells stably transfected with the corresponding FPR genes as readout, using three biological and two technical replicates. The calculated Kd values are shown on the right. […]
# as §1, with “chemotaxis.” for “chemotaxis. For measurement of Ca^2+ fluxes, 5×10^6 neutrophils/ml were labeled with a fluorescent dye and analyzed with a FACScalibur (Becton Dickinson) as described.”
SMILES,Virulence in skin infections as measured by abscess sizes [1],Capacity to cause neutrophil chemotaxis [2],"Factor of difference in chemotactic activity between the two peptides, FPR1 inhibited by CHIPS [3]"
CSCC[C@H](NC=O)C(=O)N[C@@H](CCC(=O)O)C(=O)N[C@@H](Cc1ccccc1)C(=O)N[C@H](C(=O)N[C@@H](C)C(=O)N[C@@H](CCCCN)C(=O)N[C@@H](CC(C)C)C(=O)N[C@@H](Cc1ccccc1)C(=O)N[C@@H](CCCCN)C(=O)N[C@@H](Cc1ccccc1)C(=O)N[C@@H](Cc1ccccc1)C(=O)N[C@@H](CCCCN)C(=O)N[C@@H](CC(=O)O)C(=O)N[C@@H](CC(C)C)C(=O)N[C@@H](CC(C)C)C(=O)NCC(=O)N[C@@H](CCCCN)C(=O)N[C@@H](Cc1ccccc1)C(=O)N[C@@H](CC(C)C)C(=O)NCC(=O)N[C@@H](CC(N)=O)C(=O)N[C@@H](Cc1ccc(O)cc1)C(=O)O)C(C)C [PSMα3N22Y],did not cause increased virulence in skin infections,,
CSCC[C@H](NC=O)C(=O)N[C@@H](CCC(=O)O)C(=O)N[C@@H](Cc1ccccc1)C(=O)N[C@H](C(=O)N[C@@H](C)C(=O)N[C@@H](CCCCN)C(=O)N[C@@H](CC(C)C)C(=O)N[C@@H](Cc1ccccc1)C(=O)N[C@@H](CCCCN)C(=O)N[C@@H](Cc1ccccc1)C(=O)N[C@@H](Cc1ccccc1)C(=O)N[C@@H](CCCCN)C(=O)N[C@@H](CC(=O)O)C(=O)N[C@@H](CC(C)C)C(=O)N[C@@H](CC(C)C)C(=O)NCC(=O)N[C@@H](CCCCN)C(=O)N[C@@H](Cc1ccccc1)C(=O)N[C@@H](CC(C)C)C(=O)NCC(=O)N[C@@H](CC(N)=O)C(=O)N[C@@H](CC(N)=O)C(=O)O)C(C)C [PSMα3],,about twice higher than that caused by PSMα3N22Y at all tested concentrations,~2
